Counter-ions that a name gives are not always drawn.
Test: Bloodwork: complete blood count, electrolytes, extended blood chemistry
Format: in vivo, sheep
Protocol: Indirect blood pressure, pulse recording, pain testing (mechanical stimulus device, cold and warm water baths see description in procedure) and weight were taken on days 1, 3, 7, 15, 22, 29, 36, and 43. Venous blood samples (15 ml drawn from the jugular vein with Vacutainer brand blood collection tubes) for complete blood count, electrolytes, and extended blood chemistry were drawn on days 1, 15, and 43 (mild procedure only light hand restraint necessary).

[1] = sheep Elmer Fudd #437, 5 mg/day, Day 43
[2] = sheep Leghorn II #815, 15 mg/day, Baseline
[3] = sheep Leghorn II #815, 15 mg/day, Day 1
[4] = sheep Leghorn II #815, 15 mg/day, Day 15
[5] = sheep Leghorn II #815, 15 mg/day, Day 43
[6] = sheep Petunia #439, 15 mg/day, Baseline
[7] = sheep Petunia #439, 15 mg/day, Day 1
[8] = sheep Petunia #439, 15 mg/day, Day 15

SMILES: Cc1ncc2n1-c1ccc(Cl)cc1C(c1ccccc1F)=NC2 [Midazolam, midazolam hydrochloride]
- CPK [1]: 64 U/L
- Cholesterol [1]: 90 mg/dL
- Creatinine [1]: 1.3 mg/dL
- Differential Count: Atyp lym [1]: 0%
- Differential Count: Bands [1]: 0%
- Differential Count: Eosin [1]: 2%
- Differential Count: Lymph [1]: 38%
- Differential Count: Mono [1]: 1%
- Differential Count: Seg [1]: 59%
- Gamma GT [1]: 48 U/L
- Glucose [1]: 83 mg/dL
- Hct [1]: 34.6%
- Hgb [1]: 11.8 g/dL
- K+ [1]: 4.3 mEq/l
- MCH [1]: 10.8 pg
- MCHC [1]: 34.2 G/dl
- MCV [1]: 31.7 fL
- Na+ [1]: 147 mEq/l
- Phos [1]: 6.2 mg/dL
- Platlet Count [1]: 540000 µL⁻¹
- RBC [1]: 1.09e+07 µL⁻¹
- Total Bili [1]: 0.1 mg/dL
- Total Prot [1]: 6.6 g/dL
- WBC [1]: 4650 µL⁻¹
- Differential Count: Atyp lym [2]: 0%
- Differential Count: Baso [2]: 0%
- Differential Count: Eosin [2]: 4%
- Differential Count: Lymph [2]: 79%
- Differential Count: Mono [2]: 3%
- Differential Count: Seg [2]: 14%
- Hct [2]: 36.9%
- Hgb [2]: 12.5 g/dL
- MCH [2]: 10.7 pg
- MCHC [2]: 33.9 G/dl
- MCV [2]: 31.5 fL
- Platlet Count [2]: 516000 µL⁻¹
- RBC [2]: 1.17e+07 µL⁻¹
- WBC [2]: 6730 µL⁻¹
- ALT [3]: 14 U/L
- AST [3]: 117 U/L
- Albumin [3]: 3.5 g/dL
- Alk Phos [3]: 117 U/L
- BUN [3]: 19 mg/dL
- CPK [3]: 94 U/L
- Cholesterol [3]: 68 mg/dL
- Creatinine [3]: 0.9 mg/dL
- Differential Count: Atyp lym [3]: 0%
- Differential Count: Baso [3]: 0%
- Differential Count: Eosin [3]: 2%
- Differential Count: Lymph [3]: 58%
- Differential Count: Mono [3]: 2%
- Differential Count: Seg [3]: 28%
- Gamma GT [3]: 80 U/L
- Glucose [3]: 80 mg/dL
- Hct [3]: 34.7%
- Hgb [3]: 11.8 g/dL
- K+ [3]: 5.0 mEq/l
- MCH [3]: 10.6 pg
- MCHC [3]: 34.0 G/dl
- MCV [3]: 31.1 fL
- Na+ [3]: 146 mEq/l
- Phos [3]: 8.3 mg/dL
- Platlet Count [3]: 828000 µL⁻¹
- RBC [3]: 1.11e+07 µL⁻¹
- Total Bili [3]: 0 mg/dL
- Total Prot [3]: 6.3 g/dL
- WBC [3]: 6070 µL⁻¹
- Differential Count: Atyp lym [4]: 0%
- Differential Count: Baso [4]: 0%
- Differential Count: Eosin [4]: 16%
- Differential Count: Lymph [4]: 59%
- Differential Count: Mono [4]: 1%
- Differential Count: Seg [4]: 24%
- Hct [4]: 38.0%
- Hgb [4]: 12.4 g/dL
- MCH [4]: 10.4 pg
- MCHC [4]: 32.7 G/dl
- MCV [4]: 31.8 fL
- Platlet Count [4]: 861000 µL⁻¹
- RBC [4]: 1.2e+07 µL⁻¹
- WBC [4]: 6640 µL⁻¹
- Differential Count: Atyp lym [5]: 0%
- Differential Count: Baso [5]: 1%
- Differential Count: Eosin [5]: 2%
- Differential Count: Lymph [5]: 77%
- Differential Count: Mono [5]: 2%
- Differential Count: Seg [5]: 18%
- Hct [5]: 36.4%
- Hgb [5]: 12.3 g/dL
- MCH [5]: 10.5 pg
- MCHC [5]: 33.7 G/dl
- MCV [5]: 31.2 fL
- Platlet Count [5]: 345000 µL⁻¹
- RBC [5]: 1.17e+07 µL⁻¹
- WBC [5]: 6110 µL⁻¹
- Differential Count: Atyp lym [6]: 0%
- Differential Count: Bands [6]: 0%
- Differential Count: Eosin [6]: 130%
- Differential Count: Lymph [6]: 53%
- Differential Count: Mono [6]: 7%
- Differential Count: Seg [6]: 27%
- Hct [6]: 41.1%
- Hgb [6]: 14.0 g/dL
- MCH [6]: 11.5 pg
- MCHC [6]: 34.2 G/dl
- MCV [6]: 33.6 fL
- Platlet Count [6]: 489000 µL⁻¹
- RBC [6]: 1.22e+07 µL⁻¹
- WBC [6]: 3120 µL⁻¹
- ALT [7]: 0 U/L
- AST [7]: 102 U/L
- Albumin [7]: 3.6 g/dL
- Alk Phos [7]: 43 U/L
- BUN [7]: 10 mg/dL
- CPK [7]: 84 U/L
- Cholesterol [7]: 60 mg/dL
- Creatinine [7]: 1.1 mg/dL
- Differential Count: Atyp lym [7]: 2%
- Differential Count: Bands [7]: 1%
- Differential Count: Eosin [7]: 1%
- Differential Count: Lymph [7]: 50%
- Differential Count: Mono [7]: 6%
- Differential Count: Seg [7]: 40%
- Gamma GT [7]: 84 U/L
- Glucose [7]: 71 mg/dL
- Hct [7]: 42.4%
- Hgb [7]: 14.4 g/dL
- K+ [7]: 5.4 mEq/l
- MCH [7]: 11.3 pg
- MCHC [7]: 33.9 G/dl
- MCV [7]: 33.3 fL
- Na+ [7]: 152 mEq/l
- Phos [7]: 7.9 mg/dL
- RBC [7]: 1.27e+07 µL⁻¹
- Total Bili [7]: 0 mg/dL
- Total Prot [7]: 6.6 g/dL
- WBC [7]: 2920 µL⁻¹
- Platlet Count (sheep Petunia #439, 15 mg/day, Day 1, platelet clumps observed): 715• ×10^3/μl
- ALT [8]: 1 U/L
- AST [8]: 94 U/L
- Albumin [8]: 4.0 g/dL
- Alk Phos [8]: 29 U/L
- BUN [8]: 14 mg/dL
- CPK [8]: 105 U/L
- Cholesterol [8]: 61 mg/dL
- Creatinine [8]: 1.2 mg/dL
- Differential Count: Atyp lym [8]: 1%
- Differential Count: Bands [8]: 0%

Reference: patent US20040006070A1, “Intraspinal continuous infusion of midazolam hydrochloride for the treatment of pain” (priority 2002, published 2004)
